Measured values from patent US20120135089A1, “E3 LIGASE INHIBITORS” (priority 2009, published 2012).

Legend:
MdmX = assay: etoposide-induced MdmX degradation in MCF7 cells (Western blot); type: cell-based, human; details: etoposide 30 μg/ml, 16 hours
Procedure: (§1) Cells were plated in 384-well format and treated with MG132 (2 hours) or cycloheximide (30 minutes). Steadylite luminescence buffer (PerkinElmer) was added and the relative luminescence levels determined on a Victor3 Plate Reader. Each graph represents the median of 5 replicates normalized to a no treatment control, and one standard deviation is shown. […] The graphs and EC50 values were determined using Graphpad PRISM®. […] U2OS, RKO, and HCT116 cells (p53 wild-type) were incubated with 5 μg/ml (14 μM) of MEL23, 5 μg/ml (15 μM) of MEL24, or 10 μM of MG132 for 6 hours. Cells were lysed and analyzed by Western blotting using anti-Mdm2, anti-p53, and anti-eIF4E antibodies. NT indicates a no treatment control. […] MCF7 cells (p53 wild-type) were incubated with 30 μg/ml (51 μM) etoposide alone or in combination with 50 μM AlIn or 5 μg/ml (14 μM) MEL23, or 5 μg/ml (15 μM) MEL24 for 16 hours. Cells were lysed and analyzed by Western blotting using anti-MDMX and anti-actin antibodies.
(§2) Cells were seeded and treated with the indicated compound(s). Cells were lysed after each time point in a buffer of 50 mM TrisHCl pH 7.5, 200 mM NaCl, 0.5% NP-40, and 1 complete mini EDTA-free protease inhibitor cocktail tablet per 10 mL of buffer (Roche, Cat. No. 8360170). Protein content was quantified using a Biorad protein assay reagent (Bio-Rad Laboratories, Hercules, Calif., Cat. No. 500-0006). SDS sample buffer was added to the samples, and the mixture was boiled for 5 minutes. Equal amounts of protein were resolved on a 1D SDS-PAGE gel. Following separation proteins were transferred to nitrocellulose membrane, blocked with 5% milk, and then incubated with primary antibody overnight at 4° C. The membrane was incubated with secondary-HRP antibody for 45 minutes at room temperature and developed with SuperSignal West Pico Substrate (Pierce, Rockford, Ill., Cat. No. 34080).

Mdm2 and p53 levels = assay: Western blot of Mdm2 and p53 protein levels in cell lines; type: cell-based, human; details: 6 hours; for Mdm2 and p53 levels: U2OS, RKO, HCT116 (p53 wild-type), 5 μg/ml; for p53 levels in RKO and RKO-E6 cells: isogenic RKO and RKO-E6 (HPV-E6) cells; for levels of endogenous and ectopically expressed Mdm2: p53-null H1299 cells
Procedure: as §1
(§3) H1229 cells were transfected with Mdm2-Flag or remained untransfected. Cells were treated with 5 μg/ml (14 μM) MEL23, 5 μg/ml (15 μM) MEL24, 10 μM MG132, or 1 μg/ml of doxorubicin for 6 hours. Cells were lysed and analyzed by Western blotting using anti-Mdm2 and anti-actin antibodies. The lower band indicated with a star seen with the Mdm2 antibody is a non-specific band. NT indicates a no treatment control. […] RKO and RK0-E6 cells were treated with 5 μg/ml (14 μM) MEL23, 5 μg/ml (15 μM) MEL24, 10 μM MG132, 0.5 μg/ml doxorubicin, 0.5 μg/ml camptothecin or 25 μg/ml Etoposide for 6 hours. Cells were lysed and analyzed by Western blotting using anti-Mdm2, anti-p53, and anti-actin antibodies. The lower band indicated with a star seen with the anti-Mdm2 antibody is a non-specific band. […] RKO cells were treated with 5 μg/ml (14 μM) MEL23, 5 μg/ml (15 μM) MEL24, 10 μM MG132 or 2 μg/ml doxorubicin for 6 hours. Cells were lysed and analyzed by Western blotting using anti-Mdm2, anti-p53, anti-phospho-Ser15 p53, and anti-eiF4E antibodies.
as §2
Cells were lysed and analyzed by Western blotting using anti-Mdm2, anti-p53, and anti-actin antibodies. The lower band seen with the Mdm2 antibody is a non-specific band. NT indicates no treatment control.
Referring now to FIG. 28e, endogenous Mdm2 and p53 protein levels with MEL17 treatment are shown. Briefly, U2OS, RKO, and HCT116 cells (p53 wild-type) were incubated with 5 μg/ml of MEL17 or 10 μM of MG132 for 6 hours. Cells were lysed and analyzed by Western blotting using anti-Mdm2, anti-p53, and anti-actin antibodies. The lower band seen with the Mdm2 antibody is a non-specific band.

[1] = system: p53-Ser15 phosphorylation; assay: p53-Ser15 phosphorylation in RKO cells (Western blot); type: cell-based, human; details: 6 hours
Procedure: as §3, §2

[2] = system: RKO, RKO E6, H1299 and MEF's; assay: cell cycle analysis by propidium iodide flow cytometry; type: cell-based; details: two days incubation
Procedure: RKO, RKO E6, H1299 and MEF's were seeded and treated with designated concentration of MEL23. After two days incubation, cells were harvested and fixed in ethanol, followed by staining in a solution of 7.3 μM RNaseA and 98.7 μM propidium iodide (Sigma, St. Louis, Mo.). The samples were read on a FACS Calibur flow cytometer (BD Biosciences, San Jose, Calif.) and analyzed with CeliQuest software (BD Biosciences).

Compound	etoposide-induced MdmX degradation (MdmX)	Mdm2 and p53 levels (Mdm2 and p53 levels)	p53 levels in RKO and RKO-E6 cells (Mdm2 and p53 levels)	levels of endogenous and ectopically expressed Mdm2 (Mdm2 and p53 levels)	phosphorylation of p53 at serine-15 [1]	cell cycle [2]
CCCCn1c(=O)[nH]c(O)c(C2NCCc3c2[nH]c2ccccc32)c1=O (stereo not drawn) [MEL23]	degradation could be prevented	increased	only increased levels of p53 in RKO cells	increased after treatment	lack of phosphorylation of p53 at serine-15	causes G2 cell cycle arrest
Cn1c(O)c(C2NCCc3c2[nH]c2ccccc32)c(=O)n(C)c1=O (stereo not drawn) [MEL24]	degradation could be prevented	increased	only increased levels of p53 in RKO cells	increased after treatment	lack of phosphorylation of p53 at serine-15	promotes G2 cell cycle arrest
